{"source": "patent US12263248B2", "about": "“Compounds and compositions for intracellular delivery of therapeutic agents” (ModernaTX, Inc., priority 2018, dated 2025)", "key": {"hEPO mRNA": {"tested_on": "hEPO mRNA", "assay": "hEPO expression and cytokine induction after intravenous administration to mice", "format": "in vivo", "settings": "mice, intravenous, 0.5 mpk", "method": "The expression of hEPO and cytokine induction in mice intravenously administered a nanoparticle composition at a dose of 0.5 mpk were measured at 3, 6, and 24 hours. […] The expression of hEPO in mice intramuscularly administered a nanoparticle composition from Table 1B at a dose of 0.01 mpk were measured at 3, 6, and 24 hours.\nBlood collection and analysis for hEPO. Blood was collected from mice or rats via the tail vein and hEPO concentrations were determined using a hEPO ELISA assay."}, "[1]": {"assay": "ALT and AST after intravenous administration to rat (Table 19A)", "format": "in vivo", "method": "Table 19A summarizes the hEPO expression, IP-10 induction, liver and spleen levels, and alanine aminotransferase (ALT) and aspartate aminotransferase (AST) measured upon intravenous administration of formulations including Compounds 48, 49, and 50 to rat at 0.2 and 2 mpk and hEPO mRNA. hEPO concentrations were measured 6 hours after administration, while cytokine induction and liver and spleen levels were measured 48 hours after administration. hEPO and IP-10 concentrations are presented in pg/ml, while liver levels are provided in ng/g. ALT and AST levels are presented in international units."}, "[2]": {"assay": "Pharmacokinetics of lipids in mice", "format": "in vivo", "parameters": "AUC / AUCall Mean: concentration or dose not given beside the values", "settings": "mouse", "method": "FIGS. 45A and 45B are a pair of graphs illustrating pharmacokinetics of lipids of the disclosure in mice. Mice were administered compositions comprising Compound 50 (FIG. 45A) or Compound 301 (FIG. 45B), in nanoparticle compositions containing DSPC and PEG 1."}, "[3]": {"assay": "Nanoparticle characterisation: particle size, polydispersity index, zeta potential", "format": "physicochemical", "settings": "nanoparticle composition with hEPO mRNA (Table 30)", "text": "Nanoparticle compositions may be characterized by a variety of methods. For example, microscopy (e.g., transmission electron microscopy or scanning electron microscopy) may be used to examine the morphology and size distribution of a nanoparticle composition. Dynamic light scattering or potentiometry (e.g., potentiometric titrations) may be used to measure zeta potentials. Dynamic light scattering may also be utilized to determine particle sizes. Instruments such as the Zetasizer Nano ZS (Malvern Instruments Ltd, Malvern, Worcestershire, UK) may also be used to measure multiple characteristics of a nanoparticle composition, such as particle size, polydispersity index, and zeta potential.\nThe mean size of a nanoparticle composition may be between 10s of nm and 100s of nm, e.g., measured by dynamic light scattering (DLS). For example, the mean size may be from about 40 nm to about 150 nm, such as about 40 nm, 45 nm, 50 nm, 55 nm, 60 nm, 65 nm, 70 nm, 75 nm, 80 nm, 85 nm, 90 nm, 95 nm, 100 nm, 105 nm, 110 nm, 115 nm, 120 nm, 125 nm, 130 nm, 135 nm, 140 nm, 145 nm, or 150 nm. In some embodiments, the mean size of a nanoparticle composition may be from about 50 nm to about 100 nm, from about 50 nm to about 90 nm, from about 50 nm to about 80 nm, from about 50 nm to about 70 nm, from about 50 nm to about 60 nm, from about 60 nm to about 100 nm, from about 60 nm to about 90 nm, from about 60 nm to about 80 nm, from about 60 nm to about 70 nm, from about 70 nm to about 150 nm, from about 70 nm to about 130 nm, from about 70 nm to about 100 nm, from about 70 nm to about 90 nm, from about 70 nm to about 80 nm, from about 80 nm to about 150 nm, from about 80 nm to about 130 nm, from about 80 nm to about 100 nm, from about 80 nm to about 90 nm, from about 90 nm to about 150 nm, from about 90 nm to about 130 nm, or from about 90 nm to about 100 nm. In certain embodiments, the mean size of a nanoparticle composition may from about 70 nm to about 130 nm or be from about 70 nm to about 100 nm. In a particular embodiment, the mean size may be about 80 nm. In other embodiments, the mean size may be about 100 nm. In other embodiments, the mean size may be about 120 nm.\nA nanoparticle composition may be relatively homogenous. A polydispersity index may be used to indicate the homogeneity of a nanoparticle composition, e.g., the particle size distribution of the nanoparticle compositions. A small (e.g., less than 0.3) polydispersity index generally indicates a narrow particle size distribution. A nanoparticle composition may have a polydispersity index from about 0 to about 0.25, such as 0.01, 0.02, 0.03, 0.04, 0.05, 0.06, 0.07, 0.08, 0.09, 0.10, 0.11, 0.12, 0.13, 0.14, 0.15, 0.16, 0.17, 0.18, 0.19, 0.20, 0.21, 0.22, 0.23, 0.24, or 0.25. In some embodiments, the polydispersity index of a nanoparticle composition may be from about 0.10 to about 0.20.\nThe zeta potential of a nanoparticle composition may be used to indicate the electrokinetic potential of the composition. For example, the zeta potential may describe the surface charge of a nanoparticle composition. Nanoparticle compositions with relatively low charges, positive or negative, are generally desirable, as more highly charged species may interact undesirably with cells, tissues, and other elements in the body. In some embodiments, the zeta potential of a nanoparticle composition may be from about −10 mV to about +20 mV, from about −10 mV to about +15 mV, from about −10 mV to about +10 mV, from about −10 mV to about +5 mV, from about −10 mV to about 0 mV, from about −10 mV to about −5 mV, from about −5 mV to about +20 mV, from about −5 mV to about +15 mV, from about −5 mV to about +10 mV, from about −5 mV to about +5 mV, from about −5 mV to about 0 mV, from about 0 mV to about +20 mV, from about 0 mV to about +15 mV, from about 0 mV to about +10 mV, from about 0 mV to about +5 mV, from about +5 mV to about +20 mV, from about +5 mV to about +15 mV, or from about +5 mV to about +10 mV."}}, "data": [{"smiles": "CCCCC/C=C\\C/C=C\\CCCCCCCCC(CCCCCCCC/C=C\\C/C=C\\CCCCC)OC(=O)CCCN(C)C", "note": "[MC3, DLin-MC3-DMA, reference compound]", "values": [{"measurement": "hEPO expression 3 h", "setting": "hEPO mRNA; 3 h", "result": "1.57e+06", "unit": "pg/mL"}, {"measurement": "Average hEPO concentration (pg/ml, 6 h)", "setting": "hEPO mRNA; 6 h", "result": "1.83e+06", "unit": "pg/mL"}, {"measurement": "Cytokine expression IL-6 (6 h)", "setting": "hEPO mRNA; 6 h", "result": 19.85, "unit": "pg/mL"}, {"measurement": "Cytokine expression IP-10 (6 h)", "setting": "hEPO mRNA; 6 h", "result": 117.94, "unit": "pg/mL"}, {"measurement": "hEPO expression 6 h", "setting": "hEPO mRNA; 6 h", "result": "1.83e+06", "unit": "pg/mL"}, {"measurement": "Fold increase in hEPO concentration relative to MC3", "setting": "hEPO mRNA; 6 h, Table 12", "result": 1}, {"measurement": "hEPO expression 24 h", "setting": "hEPO mRNA; 24 h", "result": 810000, "unit": "pg/mL"}, {"measurement": "ALT", "setting": "[1]; 0.2 mpk", "result": 63.6, "unit": "international units"}, {"measurement": "AST", "setting": "[1]; 0.2 mpk", "result": 134.8, "unit": "international units"}, {"measurement": "ALT", "setting": "[1]; 2 mpk", "result": 79.6, "unit": "international units"}, {"measurement": "AST", "setting": "[1]; 2 mpk", "result": 139.0, "unit": "international units"}, {"measurement": "AUCall Mean", "setting": "[2]; Liver", "result": "1,410,000 hr * ng/mL"}, {"measurement": "Cmax Mean", "setting": "[2]; Liver", "result": "33,000 ng/mL"}, {"measurement": "Tmax", "setting": "[2]; Liver", "result": 24, "unit": "h"}, {"measurement": "HL", "setting": "[2]; Liver, * = 2 terminal datapoints estimation", "result": "52.5* hr"}, {"measurement": "AUCall Mean", "setting": "[2]; Plasma", "result": "69,100 hr * ng/mL"}, {"measurement": "Cmax Mean", "setting": "[2]; Plasma", "result": "28,900 ng/mL"}, {"measurement": "HL", "setting": "[2]; Plasma", "result": 8.4, "unit": "h"}, {"measurement": "Tmax", "setting": "[2]; Plasma", "result": 0.5, "unit": "h"}, {"measurement": "AUCall Mean", "setting": "[2]; Spleen", "result": "787,000 hr * ng/mL"}, {"measurement": "Cmax Mean", "setting": "[2]; Spleen", "result": "21,200 ng/mL"}, {"measurement": "Tmax", "setting": "[2]; Spleen", "result": 8, "unit": "h"}, {"measurement": "HL", "setting": "[2]; Spleen, * = 2 terminal datapoints estimation", "result": "33.3* hr"}, {"measurement": "Osmolality", "setting": "[3]", "result": 318, "unit": "mOsm/kg"}, {"measurement": "Zeta potential", "setting": "[3]", "result": "−3.64", "unit": "mV"}, {"measurement": "pH", "setting": "[3]", "result": 7.52}]}]}
